Non-standard residues stand in square brackets, D forms with d. Residues, ends and D or L forms follow the SMILES beside them.
How the values were obtained:
[1] = Stability in human liver microsomes; format: in vitro ADME; conditions: 6 mg/mL protein, 1.3 mM NADPH with regenerating system, pH 7.4, after 24 h, read-out: still unmetabolized in human liver microsomes
Experimental: Figure 12 Stability assay of TF2D-5 and TF2D-5a using different simulated human body fluids. (A) Stability of compounds in simulated gastric fluid (SGF). The simulated gastric fluid consisted of 2 mg/mL sodium chloride, 3.2 mg/mL pepsin, and 80 mM HCl; pH 1. (B) Stability of TF2D-5 and TF2D-5a in simulated intestinal fluid (SIF). Simulated intestinal fluid consisted of 6.8 mg/mL potassium dihydrogen phosphate, 10 mg/mL pancreas powder, and 15.4 mM NaOH; pH 6.8. (C) Stability of TF2D-5 and TF2D-5a in human blood plasma. K3EDTA human blood plasma was purchased from BioTrend. (D) Stability of TF2D-5 and TF2D-5a in human liver microsomes. Human liver microsomes consisted of 6 mg/mL protein (containing Cytochrome P450 (CYP) enzymes), 75 mM sucrose, 1.3 mM NADPH, 3.3 mM D-glucose-6-phosphat, 0.2 u/mL D-glucose-6-phosphat dehydrogenase, 3.3 mM magnesium chloride, and 100 mM potassium phosphate; pH 7.4.
The stability of the compounds was tested according to Elfgen et al. and Schemmert et al. Exceptions included the extraction of plasma, simulated gastric fluid (SGF), and simulated intestinal fluid (SIF) samples. These were obtained by the addition of 12.5 µL 0.35 M ZnSO4, followed by vortexing, the addition of 12.5 µL 0.5 M HCl, additional vortexing, and centrifugation at 14,000× g for 10 min at 4 °C.

SH-SY5Y cells = experiment: Cell-viability assay (MTT); format: cell-based, human; conditions: 0.2, 1 and 5 µM, 24 h, 37 °C
Experimental: Human […] SH-SY5Y cells and rat pheochromocytoma PC12 cells were cultivated in RPMI medium with 10% fetal bovine serum and 5% horse serum. On a collagen-coated 96-well plate (Gibco, Life Technology, Carlsbad, CA, USA), 10.000 cells were seeded per well. The plate was incubated for 24 h at 37 °C and 5% CO2. TF2D-5 and TF2D-5a were added to the cells at concentrations of 0.2 µM, 1 µM, and 5 µM, respectively. As a positive control, 0.1% Trion X-100 was used. A medium was used as a negative control. The samples were incubated for a further 24 h at 37 °C and 5% CO2. Cell viability was determined by using the Cell Proliferation Kit 1 (MTT) (Roche, Basel, Switzerland) according to the instruction manual. The absorbance of generated formazan products was measured using a CLARIOstar plate reader (BMG, Offenburg, Germany). Absorption at 570 nm was measured and referenced against absorbance at 660 nm.
Figure S3. Peptide toxicity assay for different concentrations of TF2D -5 and TF2D-5a.
For this assay the compounds TF2D -5 and TF2D-5a were incubated on SHSY5Y and PC12 cells for 24 h at 37 °C and 5 % CO2. The “Cell Proliferation Kit 1” from Roche was used for the MTT assay. RPMI with 10 % HS and 5 % FBS was used as cell medium. As […] 0.1 % Triton X100 was used. For both assays no negative effect on the cell viability could be observed by addition of both compounds. […]

[2] = molecular target: T1, monomeric full-length tau 441 (Homo sapiens, UniProt P10636); experiment: SPR measurement (Biacore T200, multicycle); format: binding; conditions: compound immobilized on CM5 chip, tau as analyte, 1:1 fit, dissociation time 60 min; read-out: dissociation rate (kd)
T1 construct: The gene for the human full-length tau was prepared on a plasmid called pET28a(+)-tau2N4R; made in house; host or cells: E. coli pRare
Experimental: Figure 8 SPR measurements of TF2D-5 and TF2D-5a with monomeric full-length tau 441 and tau repeat region 3. […] The concentration of tau during the measurement ranged from 3.125 nM to 25 nM. […] Tau was used in concentrations ranging from 31.25 nM to 500 nM. SPR measurements of A and B were recorded on a T200 Biacore instrument, the corresponding compound was immobilized on a CM5 chip from Cytiva while monomeric tau served as analyte. Tests were performed with TBS pH 7.4, 0.05% Tween20 and 10 µM DTT as running buffer. Fit calculation was completed with the internal evaluation software of the T200 Biacore. A 1:1 model was used for both fits. […] The concentrations for the single cycle measurement ranged from 3.125 nM to 100 nM. Measurements of C were performed on a Biacore 8K using a CM5 chip from Cytiva. TF2D-5a was immobilized on the chip while the R3 region of tau was used as analyte. PBS pH 7.4 with 0.05% Tween20 as used as running buffer. Fit calculation was performed using the Biacore insight evaluation software and a 1:1 model. […]
Measurements of TF2D-5 and TF2D-5a against full-length tau 441 were performed on a Biacore T200 (Biacore, GE Healthcare, Uppsala, Sweden) using multicycle experiments. […] The data were evaluated using the Biacore T200 Evaluation Software 3.2 using a 1:1 fit (RI = 0).

T1 sequence (P10636 1-441 isoform P10636-8): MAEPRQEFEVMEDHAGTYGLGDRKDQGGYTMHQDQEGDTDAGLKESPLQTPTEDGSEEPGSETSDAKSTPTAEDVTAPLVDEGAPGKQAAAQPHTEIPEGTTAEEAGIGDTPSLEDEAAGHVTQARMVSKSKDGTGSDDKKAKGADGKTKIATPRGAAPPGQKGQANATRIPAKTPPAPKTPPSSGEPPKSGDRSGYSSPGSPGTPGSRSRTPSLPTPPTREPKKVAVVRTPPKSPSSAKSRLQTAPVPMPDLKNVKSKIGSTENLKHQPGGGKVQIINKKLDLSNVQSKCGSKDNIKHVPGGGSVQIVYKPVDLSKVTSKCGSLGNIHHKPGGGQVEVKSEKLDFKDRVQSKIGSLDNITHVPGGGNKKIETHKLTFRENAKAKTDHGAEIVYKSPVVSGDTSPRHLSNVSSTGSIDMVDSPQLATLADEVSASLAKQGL

Row | remaining at 24 h [1] [%] | koff [2] [s⁻¹] | Compound | toxicity (cell viability, MTT) (SH-SY5Y cells)
1 | 3.7 | 1.9e-05 | CC[C@@H](C)[C@@H](NC(=O)[C@@H](Cc1c[nH]cn1)NC(=O)CNC(=O)CNC(=O)[C@H]1CCCN1C(=O)[C@H](NC(=O)[C@@H](CCCCN)NC(=O)[C@@H](Cc1ccccc1)NC(=O)[C@@H](CC(C)C)NC(=O)[C@H](NC(=O)[C@@H](CCC(N)=O)NC(=O)[C@@H](Cc1ccc(O)cc1)NC(=O)CNC(=O)CNC(=O)[C@H](N)CC(=O)O)[C@H](C)CC)[C@H](C)CC)C(=O)N[C@H](Cc1c[nH]cn1)C(N)=O [TF2D-5] (H-[dD]GG[dY][dQ][dI][dL][dF][dK][dI][dP]GG[dH][dI][dH]-NH2) | not toxic
2 | 13.2 | 4.3e-05 | CC[C@@H](C)[C@@H](NC(=O)[C@@H](Cc1c[nH]cn1)NC(=O)CNC(=O)CNC(=O)[C@H]1CCCN1C(=O)[C@H](NC(=O)[C@@H](CCCCN)NC(=O)[C@@H](Cc1ccccc1)NC(=O)[C@@H](CC(C)C)NC(=O)[C@H](NC(=O)[C@@H](CCC(N)=O)NC(=O)[C@@H](Cc1ccc(O)cc1)NC(=O)CNC(=O)CNC(=O)[C@H](N)CC(=O)O)[C@H](C)CC)[C@H](C)CC)C(=O)N[C@H](Cc1c[nH]cn1)C(=O)N[C@H](CCCNC(=N)N)C(=O)N[C@H](CCCNC(=N)N)C(=O)N[C@H](CCCNC(=N)N)C(=O)N[C@H](CCCNC(=N)N)C(=O)N[C@H](CCCNC(=N)N)C(N)=O [TF2D-5a] (H-[dD]GG[dY][dQ][dI][dL][dF][dK][dI][dP]GG[dH][dI][dH][dR][dR][dR][dR][dR]-NH2) | not toxic
